# Results reported in article PMC5063900, “A phase 1 study of the safety, tolerability, pharmacokinetics, and pharmacodynamics of TAK-063, a selective PDE10A inhibitor” (Psychopharmacology, 2016).
# Legend:
# [1] = CNS Vital Signs (CNSVS) computerized cognition battery; assay type: in vivo, human; settings: for Composite memory domain score, Difference (TAK-063 LS mean - placebo LS mean, change from baseline) / Executive functioning domain score, Difference (TAK-063 LS mean - placebo LS mean, change from baseline) / Processing speed domain score, Difference (TAK-063 LS mean - placebo LS mean, change from baseline) / Psychomotor speed domain score, Difference (TAK-063 LS mean - placebo LS mean, change from baseline) / Reaction time domain score, Difference (TAK-063 LS mean - placebo LS mean, change from baseline) / Reasoning domain score, Difference (TAK-063 LS mean - placebo LS mean, change from baseline) / Sustained attention domain score, Difference (TAK-063 LS mean - placebo LS mean, change from baseline) / Verbal memory domain score, Difference (TAK-063 LS mean - placebo LS mean, change from baseline) / Visual memory domain score, Difference (TAK-063 LS mean - placebo LS mean, change from baseline) / Working memory domain score, Difference (TAK-063 LS mean - placebo LS mean, change from baseline) / Cognitive flexibility domain score, Difference (TAK-063 LS mean - placebo LS mean, change from baseline): 6 h postdose, fasting
# Procedure: Cognitive flexibility, attention, executive function, memory, reasoning, motor control, psychomotor speed, reaction time, and information processing speed were assessed predose and at 2 and 6 h following TAK-063 treatment using the CNSVS computerized cognition battery. The CNSVS cognition battery is a well-validated, sensitive measure and included the following tests: verbal and visual memory (VBM and VIM) tests, finger-tapping test, symbol digit coding test, Stroop test, shifting attention test, the nonverbal reasoning test, and the 4-part continuous performance test (Gualtieri and Johnson [2006]). Standardized domain scores for cognitive flexibility, composite memory, executive functioning, processing speed, psychomotor speed, reaction time, reasoning, sustained attention, verbal memory, visual memory, and working memory were reported. In all domains, a decrease in the standardized domain score is indicative of impairment.
# All statistical analyses were generated using SAS Version 9.2 (SAS, Cary, NC, USA). The PK parameters were derived using non-compartmental methods with WinNonlin Enterprise Version 6.3 (Pharsight Corp., Mountain View, CA, USA). Frequency or descriptive statistics were used for summary of data. Where indicated, percent coefficient of variation was included in the summary of continuous data. All statistical tests were 2-tailed at α = 0.05 level for significance unless otherwise stated. A power model was used to evaluate dose proportionality by race for fasted subjects; in the event of no observed race effect, dose proportionality was assessed for all subjects. To evaluate the food effect, a paired t test was performed on T max and natural log-transformed C max, and AUCs. An ANCOVA model with baseline scores and race as covariates was used to assess the effects of TAK-063 on CNSVS domain scores.
# [2] = stated in discussion without method or reference; cited from earlier work
structure (smiles),measurement,setting,value
COc1cn(-c2ccc(-n3cccn3)cc2F)nc(-c2ccnn2-c2ccccc2)c1=O [TAK-063],"Composite memory domain score, Difference (TAK-063 LS mean - placebo LS mean, change from baseline)",[1]; 3 mg,-1.4
same,"Executive functioning domain score, Difference (TAK-063 LS mean - placebo LS mean, change from baseline)",[1]; 3 mg,2.9
same,"Processing speed domain score, Difference (TAK-063 LS mean - placebo LS mean, change from baseline)",[1]; 3 mg,2.5
same,"Psychomotor speed domain score, Difference (TAK-063 LS mean - placebo LS mean, change from baseline)",[1]; 3 mg,-1.8
same,"Reaction time domain score, Difference (TAK-063 LS mean - placebo LS mean, change from baseline)",[1]; 3 mg,1.5
same,"Reasoning domain score, Difference (TAK-063 LS mean - placebo LS mean, change from baseline)",[1]; 3 mg,6.9
same,"Sustained attention domain score, Difference (TAK-063 LS mean - placebo LS mean, change from baseline)",[1]; 3 mg,15.0
same,"Verbal memory domain score, Difference (TAK-063 LS mean - placebo LS mean, change from baseline)",[1]; 3 mg,-4.8
same,"Visual memory domain score, Difference (TAK-063 LS mean - placebo LS mean, change from baseline)",[1]; 3 mg,4.5
same,"Working memory domain score, Difference (TAK-063 LS mean - placebo LS mean, change from baseline)",[1]; 3 mg,9.9
same,"Cognitive flexibility domain score, Difference (TAK-063 LS mean - placebo LS mean, change from baseline)",[1]; 10 mg,-10.0
same,"Composite memory domain score, Difference (TAK-063 LS mean - placebo LS mean, change from baseline)",[1]; 10 mg,-1.9
same,"Executive functioning domain score, Difference (TAK-063 LS mean - placebo LS mean, change from baseline)",[1]; 10 mg,-10.0
same,"Processing speed domain score, Difference (TAK-063 LS mean - placebo LS mean, change from baseline)",[1]; 10 mg,0.2
same,"Psychomotor speed domain score, Difference (TAK-063 LS mean - placebo LS mean, change from baseline)",[1]; 10 mg,-9.6
same,"Reaction time domain score, Difference (TAK-063 LS mean - placebo LS mean, change from baseline)",[1]; 10 mg,-5.6
same,"Reasoning domain score, Difference (TAK-063 LS mean - placebo LS mean, change from baseline)",[1]; 10 mg,2.2
same,"Sustained attention domain score, Difference (TAK-063 LS mean - placebo LS mean, change from baseline)",[1]; 10 mg,3.6
same,"Verbal memory domain score, Difference (TAK-063 LS mean - placebo LS mean, change from baseline)",[1]; 10 mg,2.9
same,"Visual memory domain score, Difference (TAK-063 LS mean - placebo LS mean, change from baseline)",[1]; 10 mg,-4.4
same,"Working memory domain score, Difference (TAK-063 LS mean - placebo LS mean, change from baseline)",[1]; 10 mg,2.3
same,"Cognitive flexibility domain score, Difference (TAK-063 LS mean - placebo LS mean, change from baseline)",[1]; 30 mg,-1.9
same,"Composite memory domain score, Difference (TAK-063 LS mean - placebo LS mean, change from baseline)",[1]; 30 mg,7.5
same,"Executive functioning domain score, Difference (TAK-063 LS mean - placebo LS mean, change from baseline)",[1]; 30 mg,-1.2
same,"Processing speed domain score, Difference (TAK-063 LS mean - placebo LS mean, change from baseline)",[1]; 30 mg,2.2
same,"Psychomotor speed domain score, Difference (TAK-063 LS mean - placebo LS mean, change from baseline)",[1]; 30 mg,-3.7
same,"Reaction time domain score, Difference (TAK-063 LS mean - placebo LS mean, change from baseline)",[1]; 30 mg,-2.8
same,"Reasoning domain score, Difference (TAK-063 LS mean - placebo LS mean, change from baseline)",[1]; 30 mg,-0.6
same,"Sustained attention domain score, Difference (TAK-063 LS mean - placebo LS mean, change from baseline)",[1]; 30 mg,2.5
same,"Verbal memory domain score, Difference (TAK-063 LS mean - placebo LS mean, change from baseline)",[1]; 30 mg,3.8
same,"Visual memory domain score, Difference (TAK-063 LS mean - placebo LS mean, change from baseline)",[1]; 30 mg,8.3
same,"Working memory domain score, Difference (TAK-063 LS mean - placebo LS mean, change from baseline)",[1]; 30 mg,-2.2
same,"Cognitive flexibility domain score, Difference (TAK-063 LS mean - placebo LS mean, change from baseline)",[1]; 100 mg,-5.6
same,"Composite memory domain score, Difference (TAK-063 LS mean - placebo LS mean, change from baseline)",[1]; 100 mg,-13.5
same,"Executive functioning domain score, Difference (TAK-063 LS mean - placebo LS mean, change from baseline)",[1]; 100 mg,-2.2
same,"Processing speed domain score, Difference (TAK-063 LS mean - placebo LS mean, change from baseline)",[1]; 100 mg,-4.7
same,"Psychomotor speed domain score, Difference (TAK-063 LS mean - placebo LS mean, change from baseline)",[1]; 100 mg,-11.4
same,"Reaction time domain score, Difference (TAK-063 LS mean - placebo LS mean, change from baseline)",[1]; 100 mg,-3.4
same,"Reasoning domain score, Difference (TAK-063 LS mean - placebo LS mean, change from baseline)",[1]; 100 mg,2.0
same,"Sustained attention domain score, Difference (TAK-063 LS mean - placebo LS mean, change from baseline)",[1]; 100 mg,-0.1
same,"Verbal memory domain score, Difference (TAK-063 LS mean - placebo LS mean, change from baseline)",[1]; 100 mg,-12.0
same,"Visual memory domain score, Difference (TAK-063 LS mean - placebo LS mean, change from baseline)",[1]; 100 mg,-8.3
same,"Working memory domain score, Difference (TAK-063 LS mean - placebo LS mean, change from baseline)",[1]; 100 mg,-6.2
same,"Cognitive flexibility domain score, Difference (TAK-063 LS mean - placebo LS mean, change from baseline)",[1]; 300 mg,-28.4
same,"Composite memory domain score, Difference (TAK-063 LS mean - placebo LS mean, change from baseline)",[1]; 300 mg,-19.6
same,"Executive functioning domain score, Difference (TAK-063 LS mean - placebo LS mean, change from baseline)",[1]; 300 mg,-26.4
same,"Processing speed domain score, Difference (TAK-063 LS mean - placebo LS mean, change from baseline)",[1]; 300 mg,-1.5
same,"Psychomotor speed domain score, Difference (TAK-063 LS mean - placebo LS mean, change from baseline)",[1]; 300 mg,-11.1
same,"Reaction time domain score, Difference (TAK-063 LS mean - placebo LS mean, change from baseline)",[1]; 300 mg,-4.1
same,"Reasoning domain score, Difference (TAK-063 LS mean - placebo LS mean, change from baseline)",[1]; 300 mg,-2.0
same,"Sustained attention domain score, Difference (TAK-063 LS mean - placebo LS mean, change from baseline)",[1]; 300 mg,-8.1
same,"Verbal memory domain score, Difference (TAK-063 LS mean - placebo LS mean, change from baseline)",[1]; 300 mg,-17.3
same,"Visual memory domain score, Difference (TAK-063 LS mean - placebo LS mean, change from baseline)",[1]; 300 mg,-14.0
same,"Working memory domain score, Difference (TAK-063 LS mean - placebo LS mean, change from baseline)",[1]; 300 mg,-1.4
same,"Cognitive flexibility domain score, Difference (TAK-063 LS mean - placebo LS mean, change from baseline)",[1]; 1000 mg,-15.6
same,"Composite memory domain score, Difference (TAK-063 LS mean - placebo LS mean, change from baseline)",[1]; 1000 mg,-8.6
same,"Executive functioning domain score, Difference (TAK-063 LS mean - placebo LS mean, change from baseline)",[1]; 1000 mg,-14.1
same,"Processing speed domain score, Difference (TAK-063 LS mean - placebo LS mean, change from baseline)",[1]; 1000 mg,-19.7
same,"Psychomotor speed domain score, Difference (TAK-063 LS mean - placebo LS mean, change from baseline)",[1]; 1000 mg,-22.7
same,"Reaction time domain score, Difference (TAK-063 LS mean - placebo LS mean, change from baseline)",[1]; 1000 mg,-16.5
same,"Reasoning domain score, Difference (TAK-063 LS mean - placebo LS mean, change from baseline)",[1]; 1000 mg,-0.1
same,"Sustained attention domain score, Difference (TAK-063 LS mean - placebo LS mean, change from baseline)",[1]; 1000 mg,0.7
same,"Verbal memory domain score, Difference (TAK-063 LS mean - placebo LS mean, change from baseline)",[1]; 1000 mg,-5.8
same,"Visual memory domain score, Difference (TAK-063 LS mean - placebo LS mean, change from baseline)",[1]; 1000 mg,-6.0
same,"Working memory domain score, Difference (TAK-063 LS mean - placebo LS mean, change from baseline)",[1]; 1000 mg,-2.7
same,"Single dose causing impairments in cognitive flexibility, executive functioning, processing and psychomotor speed, and visual memory","[1]; single dose, CNSVS",≥ 100 mg
same,Aqueous solubility,[2],low
